Where a SMILES comes first, the peptide text is derived from it. [ ]: non-standard residue; d: D form. Nle = CCCC[C@H](N)C(=O)O
How the values were obtained:
Format in all cases: cell-based
[1] = tested on: transcriptional activity of Zic; experiment: Zic / ApoE-luciferase reporter assay in EcR 293 stable transfectants
BDAD-CTEY = experiment: BDAD-teneurin-2 fusion GAL4 luciferase reporter (cleavage) assay; conditions: addition of protease inhibitors; ALLN 25 μg/ml, lactacystin 10 μM
Protocol: (§1) HT1 080 human fibrosarcoma (ATCC CRL-12012) and COS-7 cells (SV40-transformed kidney fibroblasts from the African green monkey, ATCC CRL-1651) were routinely maintained In DMEM medium (Dulbecco's Modified Eagles Medium) supplemented with 10% FCS (fetal calf serum). For transient transfections the cells were seeded in 6-well plates or 4-well staining dishes (Greiner). Twelve hours later they were transfected with the expression vectors containing the constructs (1 μg of each vector) described above and in Example 2 (Zic), Example 4 and Example 5 by using FUGENE-6 (3 μl, 6 μl or 9 μl for one, two to three, or four different plasmids, respectively). […]
The cells were lysed by adding reporter lysis buffer (Promega). Serial dilutions of the lysed cell suspension were then pipetted into Microlite™ luciferase plates (Dynex Technologies) and the luciferase activity was measured in a Microlumat (LB96P, EG+G Berthold) by automatic injection of luciferin substrate solution (2 mM luciferin, 100 mM ATP in 250 mM glycin pH 7.8, 150 mM MgSO4). […] To stop the enzymatic reaction, three times the sample volume of 1 M Na2CO3 was added and the OD was measured at 405 nm in a microplate reader (BioRad). […]

teneurin-2 CTE = experiment: Western blot of teneurin-2 CTE and its cleavage products; conditions: two cleavage products, one the size of the cytoplasmic domain alone
Protocol: as §1, with “respectively). The cells were treated with the following substances at least five hours after transfection: ALLN (25 μg/ml; N-acetyl-leu-leu-norleu-AL; Sigma); tunicamycin (2 μg/ml; Sigma) or lactacystin (10 μM; e.g. Sigma) for four or eight hours prior to harvesting.” for “respectively).”
(§2) The gels were transferred to PVDF (polyvinylidene fluoride) membranes. The proteins were detected by anti-GAL4 antibody (BDAD and BDAD-C) or by anti-teneurin-2 serum (BDAD-CTE and BDAD-CTEY), horseradish peroxidase coupled secondary antibodies and ECL SuperSignal® (Pierce).

teneurin-2 C = experiment: Teneurin-2 C expression level after co-transfection with Zic; conditions: HT1080 cells, transient co-transfection of teneurin-2 C and Zic; lactacystin 10 μM
Protocol: as §1, with “respectively). The cells were treated with the following substances at least five hours after transfection: ALLN (25 μg/ml; N-acetyl-leu-leu-norleu-AL; Sigma); tunicamycin (2 μg/ml; Sigma) or lactacystin (10 μM; e.g. Sigma) for four or eight hours prior to harvesting.” for “respectively).”
as §2
In this Example, it was determined whether the zinc finger transcription factor Zic, a vertebrate homologue of opa would influence, or be influenced by, the cytoplasmic domain of teneurin-2. […]

K3 cells = experiment: Proliferation assay, K3 cells; conditions: 5 day period, crystal violet, ponasterone induces the cytoplasmic domain of teneurin-2
Protocol: (§3) The effect of the expression of the cytoplasmic domain of teneurin-2 on cell proliferation was tested. K3 cells (EcR-293 cells (Invitrogen) containing the stably integrated plasmid pVgRXR (Invitrogen) and the plnd teneurin-2 plasmid encoding the cytoplasmic domain, described in Example 7) were cultured in the presence or absence of ponasterone, which induces expression of the cytoplasmic domain of teneurin-2. Typically, over a 5 day period, parallel cultures were fixed with 4% formaldehyde every day and cell numbers were determined by staining the cells with crystal violet (0.1% in H20). In the presence of ponasterone and thus in the presence of the cytoplasmic domain of teneurin, the K3 cells were retarded in their growth rate to about 50% of the untreated cells. Proliferation of EcR-293 cells without transfected cytoplasmic domain of teneurin-2 was not affected by the addition of ponasterone, proving that the growth retardation was specifically dependent on the presence of the cytoplasmic domain of teneurin-2.

EcR-293 cells = experiment: Proliferation assay, EcR-293 cells; conditions: EcR-293 cells without transfected cytoplasmic domain of teneurin-2
Protocol: as §3

CCCC[C@@H](C=O)NC(=O)[C@H](CC(C)C)NC(=O)[C@H](CC(C)C)NC(C)=O [ALLN, N-acetyl-leu-leu-norleu-AL] (Ac-Leu-Leu-[Nle]-aldehyde)
stabilization of teneurin-2 C ([1]; ALLN 25 μg/ml): stabilize teneurin-2 C | inhibitory effect of teneurin-2 C on the transcriptional activity of Zic (ApoE-luciferase reporter) ([1]; EcR 293 cells, teneurin-2 C induced by ponasterone, in the presence of ALLN): more pronounced | induction of luciferase activity following transfection of BDAD-CTEY (BDAD-CTEY): markedly upregulated | stabilisation of cleavage products of CTE (western blot) (teneurin-2 CTE): stabilisation of two particular cleavage products

CC(=O)N[C@@H](CSC(=O)[C@]1([C@@H](O)C(C)C)NC(=O)[C@H](C)[C@@H]1O)C(=O)O [lactacystin]
Zic induced downregulation of teneurin-2 C (teneurin-2 C): counteracted | induction of luciferase activity following transfection of BDAD-CTEY (BDAD-CTEY): markedly upregulated

CC(C)CC[C@@H](O)[C@](C)(O)[C@H]1CC[C@@]2(O)C3=CC(=O)[C@@H]4C[C@@H](O)[C@@H](O)C[C@]4(C)[C@H]3CC[C@]12C [ponasterone]
expression level of the reporter gene (ApoE-luciferase) after induction of teneurin-2 C ([1]; EcR 293 stable transfectants transiently transfected with Zic, ponasterone induces teneurin-2 C): marked reduction | growth rate relative to untreated cells (K3 cells): about 50% | proliferation (EcR-293 cells): not affected

Source: patent US20060121483A1, “Methods for detecting teneurin signalling and related screening methods” (priority 2002, published 2006)
